{
  "source": "patent US7816371B2",
  "about": "“Bicycloheteroaryl compounds as P2X7 modulators and uses thereof” (Renovis, Inc., priority 2006, dated 2010)",
  "data": [
    {"molecular_target": "T1, P2X7 receptor (Homo sapiens, UniProt Q99572)", "T1 construct": "host or cells: THP-1 cells differentiated with LPS and IFN-γ", "T1 sequence (Q99572 1-595)": "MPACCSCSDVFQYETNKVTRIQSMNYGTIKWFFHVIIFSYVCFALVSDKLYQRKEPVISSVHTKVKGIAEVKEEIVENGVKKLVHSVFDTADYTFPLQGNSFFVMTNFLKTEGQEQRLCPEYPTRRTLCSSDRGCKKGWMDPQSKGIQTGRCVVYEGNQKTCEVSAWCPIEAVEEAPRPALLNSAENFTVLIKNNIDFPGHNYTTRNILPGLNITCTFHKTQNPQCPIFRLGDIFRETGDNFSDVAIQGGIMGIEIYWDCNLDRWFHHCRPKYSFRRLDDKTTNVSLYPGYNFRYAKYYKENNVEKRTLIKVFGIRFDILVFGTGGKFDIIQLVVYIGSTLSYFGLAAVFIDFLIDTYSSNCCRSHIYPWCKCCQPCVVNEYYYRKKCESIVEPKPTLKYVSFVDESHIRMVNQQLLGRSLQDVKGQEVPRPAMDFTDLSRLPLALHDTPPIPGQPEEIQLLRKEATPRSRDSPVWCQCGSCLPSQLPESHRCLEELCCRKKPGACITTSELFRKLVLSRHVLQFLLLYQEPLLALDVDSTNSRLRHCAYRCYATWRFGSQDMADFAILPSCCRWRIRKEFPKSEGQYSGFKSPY", "assay": "IL-1β release assay in differentiated THP-1 cells stimulated with BzATP (Example 9); % inhibition and IC50", "assay_type": "cell-based", "details": "THP-1 cells differentiated with LPS and IFN-γ, 30 min pretreatment, BzATP 250 uM, IL-1β by ELISA", "experimental": "The cells are then pretreated for 30 minutes with the compound of interest at the appropriate concentration in RPMI media containing 100 IU/mL penicillin, 100 ug/mL streptomycin. […] 30 uL of cell supernatant is then collected and IL-1β levels determined via ELISA (R&D systems Cat. # HSLB50) according to manufacturer's recommendations using the Tecan Safire plate reader. Background adjusted IL-1β levels of drug treated and non-treated cells are used to calculate the percent inhibition.\nThe compounds set forth in Table 1 were tested for activity in a cellular model as described herein.", "units": {"IC50": "nM"}, "values": [
      {"smiles": "O=C(Nc1cccc2c(=O)n(CCO)ccc12)c1ccccc1", "note": "[Compound 1]", "IC50": "> 1000"},
      {"smiles": "COc1ccc(CC(=O)Nc2cccc3c(=O)n(CCO)ccc23)cc1", "note": "[Compound 2]", "IC50": "> 1000"},
      {"smiles": "O=C(CCc1ccccc1)Nc1cccc2c(=O)n(CCO)ccc12", "note": "[Compound 3]", "IC50": 272},
      {"smiles": "O=C(Cc1ccc(Cl)cc1)Nc1cccc2c(=O)n(CCO)ccc12", "note": "[Compound 4]", "IC50": 317},
      {"smiles": "COc1ccc(C(=O)Nc2cccc3c(=O)n(C(CO)CO)ccc23)c(OC)c1", "note": "[Compound 5]", "IC50": "> 1000"},
      {"smiles": "O=C(Nc1cccc2c(=O)n(CCO)ccc12)c1ccc(C(F)(F)F)cc1C(F)(F)F", "note": "[Compound 6]", "IC50": 311},
      {"smiles": "O=C(Cc1ccc(C(F)(F)F)cc1)Nc1cccc2c(=O)n(CCO)ccc12", "note": "[Compound 7]", "IC50": 289},
      {"smiles": "O=C(Cc1ccc(Cl)c(Cl)c1)Nc1cccc2c(=O)n(CCO)ccc12", "note": "[Compound 8]", "IC50": 30.3},
      {"smiles": "O=C(CCc1cc(C(F)(F)F)cc(C(F)(F)F)c1)Nc1cccc2c(=O)n(CCO)ccc12", "note": "[Compound 61]", "IC50": "> 1000"},
      {"smiles": "O=C(CCc1cc(C(F)(F)F)ccc1C(F)(F)F)Nc1cccc2c(=O)n(CCO)ccc12", "note": "[Compound 62]", "IC50": 22.2},
      {"smiles": "O=C(Cc1ccc2c(c1)OCCO2)Nc1cccc2c(=O)n(CCO)ccc12", "note": "[Compound 63]", "IC50": "> 1000"},
      {"smiles": "O=C(Cc1cc(C(F)(F)F)cc(C(F)(F)F)c1)Nc1cccc2c(=O)n(CCO)ccc12", "note": "[Compound 64]", "IC50": 113},
      {"smiles": "COc1ccc(CC(=O)Nc2cccc3c(=O)n(CCO)ccc23)cc1Br", "note": "[Compound 66]", "IC50": 110},
      {"smiles": "O=C(Cc1cc(C(F)(F)F)ccc1Cl)Nc1cccc2c(=O)n(CCO)ccc12", "note": "[Compound 67]", "IC50": "> 1000"},
      {"smiles": "O=C(Cc1cc(Cl)ccc1C(F)(F)F)Nc1cccc2c(=O)n(CCO)ccc12", "note": "[Compound 68]", "IC50": 720},
      {"smiles": "O=C(Cc1ccc(Cl)cc1Cl)Nc1cccc2c(=O)n(CCO)ccc12", "note": "[Compound 69]", "IC50": 10.8},
      {"smiles": "O=C(Cc1cc(C(F)(F)F)ccc1C(F)(F)F)Nc1cccc2c(=O)n(CCO)ccc12", "note": "[Compound 70]", "IC50": 406},
      {"smiles": "CS(=O)(=O)c1ccc(CCC(=O)Nc2cccc3c(=O)n(CCO)ccc23)cc1", "note": "[Compound 71]", "IC50": "> 1000"},
      {"smiles": "CS(=O)(=O)c1ccc(CC(=O)Nc2cccc3c(=O)n(CCO)ccc23)cc1", "note": "[Compound 72]", "IC50": "> 1000"},
      {"smiles": "O=C(Cc1ccc(F)cc1)Nc1cccc2c(=O)n(CCO)ccc12", "note": "[Compound 73]", "IC50": 532},
      {"smiles": "CCC(C(=O)Nc1cccc2c(=O)n(CCO)ccc12)c1ccccc1", "note": "(stereo not drawn) [Compound 74]", "IC50": "> 1000"},
      {"smiles": "COc1cccc(CC(=O)Nc2cccc3c(=O)n(CCO)ccc23)c1", "note": "[Compound 75]", "IC50": "> 1000"},
      {"smiles": "O=C(Cc1ccccc1)Nc1cccc2c(=O)n(CCO)ccc12", "note": "[Compound 76]", "IC50": "> 1000"},
      {"smiles": "COc1ccc(OC)c(CC(=O)Nc2cccc3c(=O)n(CCO)ccc23)c1", "note": "[Compound 77]", "IC50": "> 1000"},
      {"smiles": "CC(C)C(C(=O)Nc1cccc2c(=O)n(CCO)ccc12)c1ccc(Cl)cc1", "note": "(stereo not drawn) [Compound 78]", "IC50": "> 1000"},
      {"smiles": "O=C(Cc1ccc(Cl)c(Cl)c1)Nc1cccc2c(=O)n(C(CO)CO)ccc12", "note": "[Compound 80]", "IC50": 27.5},
      {"smiles": "O=C(Cc1ccc(Cl)c(C(F)(F)F)c1)Nc1cccc2c(=O)n(C(CO)CO)ccc12", "note": "[Compound 81, 2-(4-Chloro-3-trifluoromethyl-phenyl)-N-[2-(2-hydroxy-1-hydroxymethyl-ethyl)-1-oxo-1,2-dihydro-isoquinolin-5-yl]-acetamide]", "IC50": 27.8},
      {"smiles": "O=C(Cc1ccc(Cl)cc1Cl)Nc1cccc2c(=O)n(C(CO)CO)ccc12", "note": "[Compound 82]", "IC50": 228},
      {"smiles": "O=C(Cc1ccc(Cl)cc1C(F)(F)F)Nc1cccc2c(=O)n(C(CO)CO)ccc12", "note": "[Compound 228]", "IC50": 212},
      {"smiles": "O=C(Cc1ccc(Cl)cc1C(F)(F)F)Nc1cccc2c(=O)n(CCO)ccc12", "note": "[Compound 229]", "IC50": 187},
      {"smiles": "O=C(Cc1ccc(C(F)(F)F)cc1C(F)(F)F)Nc1cccc2c(=O)n(CCO)ccc12", "note": "[Compound 230]", "IC50": 161},
      {"smiles": "CC(C(=O)Nc1cccc2c(=O)n(C(CO)CO)ccc12)c1ccc(Cl)cc1", "note": "(stereo not drawn) [Compound 231]", "IC50": 374},
      {"smiles": "O=C(Cc1ccc(Cl)c(C(F)(F)F)c1)Nc1cccc2c(=O)n(C[C@@H]3CCCN3)ccc12", "note": "[Compound 232, 2-(4-Chloro-3-trifluoromethyl-phenyl)-N-(1-oxo-2-(S)-1-pyrrolidin-2-ylmethyl-1,2-dihydro-isoquinolin-5-yl)-acetamide]", "IC50": 10.7},
      {"smiles": "O=C(Cc1ccc(C(F)(F)F)cc1C(F)(F)F)Nc1cccc2c(=O)n(C(CO)CO)ccc12", "note": "[Compound 233]", "IC50": 391},
      {"smiles": "CNCCn1ccc2c(NC(=O)Cc3ccc(Cl)c(Cl)c3)cccc2c1=O", "note": "[Compound 234]", "IC50": 144},
      {"smiles": "CNCCn1ccc2c(NC(=O)Cc3ccc(Cl)c(C(F)(F)F)c3)cccc2c1=O", "note": "[Compound 235, 2-(4-Chloro-3-trifluoromethyl-phenyl)-N-[2-(2-methylamino-ethyl)-1-oxo-1,2-dihydro-isoquinolin-5-yl]-acetamide]", "IC50": 70.6},
      {"smiles": "C[C@@H](C(N)=O)n1ccc2c(NC(=O)Cc3ccc(Cl)c(Cl)c3)cccc2c1=O", "note": "[Compound 236, (S)-2-{5-[2-(3,4-Dichloro-phenyl)-acetylamino]-1-oxo-1H-isoquinolin-2-yl}-propionamide]", "IC50": 46.6},
      {"smiles": "C[C@@H](C(N)=O)n1ccc2c(NC(=O)Cc3ccc(Cl)cc3C(F)(F)F)cccc2c1=O", "note": "[Compound 237, (S)-2-{5-[2-(4-Chloro-2-trifluoromethyl-phenyl)-acetylamino]-1-oxo-1H-isoquinolin-2-yl}-propionamide]", "IC50": 6.27},
      {"smiles": "C[C@H](C(N)=O)n1ccc2c(NC(=O)Cc3ccc(Cl)c(C(F)(F)F)c3)cccc2c1=O", "note": "[Compound 238, (R)-2-{5-[2-(4-Chloro-3-trifluoromethyl-phenyl)-acetylamino]-1-oxo-1H-isoquinolin-2-yl}-propionamide]", "IC50": 1.26},
      {"smiles": "C[C@H](C(N)=O)n1ccc2c(NC(=O)Cc3ccc(Cl)c(Cl)c3)cccc2c1=O", "note": "[Compound 239]", "IC50": 4.05},
      {"smiles": "CC(C(=O)Nc1cccc2c(=O)n([C@@H](C)C(N)=O)ccc12)c1ccc(Cl)cc1", "note": "(stereo partly drawn) [Compound 240]", "IC50": 11.8},
      {"smiles": "C[C@H](C(N)=O)n1ccc2c(NC(=O)Cc3ccc(Cl)cc3C(F)(F)F)cccc2c1=O", "note": "[Compound 241]", "IC50": 23.6},
      {"smiles": "O=C(Cc1ccc(Cl)c(C(F)(F)F)c1)Nc1cccc2c(=O)n(C[C@H]3CCCN3)ccc12", "note": "[Compound 243]", "IC50": 35.8},
      {"smiles": "O=C(Cc1ccc(Cl)c(Cl)c1)Nc1cccc2c(=O)n(C[C@H]3CCCN3)ccc12", "note": "[Compound 245]", "IC50": 46.5},
      {"smiles": "CC(C(=O)Nc1cccc2c(=O)n(C[C@@H]3CCCN3)ccc12)c1ccc(Cl)cc1", "note": "(stereo partly drawn) [Compound 246]", "IC50": 113},
      {"smiles": "CC(C(=O)Nc1cccc2c(=O)n([C@H](C)C(N)=O)ccc12)c1ccc(Cl)cc1", "note": "(stereo partly drawn) [Compound 247]", "IC50": 18.8},
      {"smiles": "O=C(Cc1ccc(Cl)c(Cl)c1)Nc1c(Cl)ccc2c(=O)n(CCO)ccc12", "note": "[Compound 248]", "IC50": "> 1000"},
      {"smiles": "NC(=O)Cn1ccc2c(NC(=O)Cc3ccc(Cl)c(C(F)(F)F)c3)cccc2c1=O", "note": "[Compound 249, 2-{5-[2-(4-Chloro-3-trifluoromethyl-phenyl)-acetylamino]-1-oxo-1H-isoquinolin-2-yl}-acetamide]", "IC50": 4.83},
      {"smiles": "NC(=O)[C@H](CO)n1ccc2c(NC(=O)Cc3ccc(Cl)c(C(F)(F)F)c3)cccc2c1=O", "note": "[Compound 250, (S)-2-{5-[2-(4-Chloro-3-trifluoromethyl-phenyl)-acetylamino]-1-oxo-1H-isoquinolin-2-yl}-3-hydroxy-propionamide]", "IC50": 15.1},
      {"smiles": "CC(C(=O)Nc1cccc2c(=O)n(CCO)ccc12)c1ccc(Cl)c(C(F)(F)F)c1", "note": "(stereo not drawn) [Compound 251]", "IC50": 57.3},
      {"smiles": "CC(C(=O)Nc1cccc2c(=O)n([C@H](CO)C(N)=O)ccc12)c1ccc(Cl)cc1", "note": "(stereo partly drawn) [Compound 252, (R)-2-{5-[2-(4-Chloro-phenyl)-propionylamino]-1-oxo-1H-isoquinolin-2-yl}-3-hydroxy-propionamide]", "IC50": 161},
      {"smiles": "NC(=O)[C@H](CO)n1ccc2c(NC(=O)Cc3ccc(Cl)c(Cl)c3)cccc2c1=O", "note": "[Compound 253]", "IC50": 763},
      {"smiles": "CC(C(=O)Nc1cccc2c(=O)n([C@H](C)C(N)=O)ccc12)c1ccc(Cl)c(Cl)c1", "note": "(stereo partly drawn) [Compound 254]", "IC50": 25.3},
      {"smiles": "C[C@H](C(N)=O)n1ccc2c(NC(=O)Cc3cccc(Cl)c3)cccc2c1=O", "note": "[Compound 255]", "IC50": 21.6},
      {"smiles": "C[C@H](C(N)=O)n1ccc2c(NC(=O)Cc3ccc(Cl)cc3)cccc2c1=O", "note": "[Compound 256]", "IC50": 34.4},
      {"smiles": "O=C(Cc1ccc(Cl)c(C(F)(F)F)c1)Nc1cccc2c(=O)n(CC3CCNCC3)ccc12", "note": "[Compound 257, 2-(4-Chloro-3-trifluoromethyl-phenyl)-N-(1-oxo-2-piperidin-4-ylmethyl-1,2-dihydro-isoquinolin-5-yl)-acetamide]", "IC50": 39},
      {"smiles": "NCC(CCl)Cn1ccc2c(NC(=O)Cc3ccc(Cl)c(C(F)(F)F)c3)cccc2c1=O", "note": "(stereo not drawn) [Compound 258, N-[2-(3-Amino-2-chloromethyl-propyl)-1-oxo-1,2-dihydro-isoquinolin-5-yl]-2-(4-chloro-3-trifluoromethyl-phenyl)-acetamide]", "IC50": 9.92}
    ]}
  ]
}
